This note sets out measurements from patent publication US4363922A, “Esters of antibiotic nodusmicin” (priority 1981, dated 1982).

One data set has as its system S.lutea UC-130. The data set is described as follows: Dipped disc agar diffusion assay, S. lutea. As to conditions: Micrococcus luteus, UC130, 16 h.
The next data set deals with S.aureus UC-76. Put plainly: Minimum Inhibitory Concentration, microplate broth-dilution, S. aureus UC-76. The settings on record: for MIC: Staphylococcus aureus.
For the next data set, the system named is S.aureus UC-570. The data set is described as follows: Minimum Inhibitory Concentration, microplate broth-dilution, S. aureus UC-570. The settings on record: Staphylococcus aureus.
For a further data set, the system named is S.aureus UC-746. Put plainly: Minimum Inhibitory Concentration, microplate broth-dilution, S. aureus UC-746. The settings on record: Staphylococcus aureus.
A further data set has as its system S.pyrogenes UC-152. The data set is described as follows: Minimum Inhibitory Concentration, microplate broth-dilution, S. pyrogenes UC-152.
The test system of another data set is S.aureus UC 80. Put plainly: Dipped disc agar diffusion assay, S. aureus. The settings on record: for zone of inhibition at 1000 µg/mL: Staphylococcus aureus, UC80, 16 h.
A short description of data set [1]: Solubility noted in the MIC determination. As to conditions: BHI broth.
[2] abbreviates: read-out: Agar Diffusion 1 mg./ml. S.lutea UC-130 (inhibition zone).
Setting [3] is: UC76, read-out: MIC S.aureus UC-76.
[4] abbreviates: UC570, read-out: MIC S.aureus UC-570.
Setting [5] is: UC746, read-out: MIC S.aureus UC-746.
Where [6] appears, read: read-out: MIC S.pyrogenes UC-152.
The mark [7] stands for this setting: read-out: Agar Diffusion 1 mg./ml. S.aureus UC 80 (inhibition zone), 1 mg./ml., 12.7 mm paper disc, 16 hours.
[8] abbreviates: UC76, read-out: MIC S.aureus UC-76, BHI broth, sensitive strain.
[9] abbreviates: UC570, read-out: MIC S.aureus UC-570, BHI broth, sensitive strain.
The mark [10] stands for this setting: UC746, read-out: MIC S.aureus UC-746, BHI broth, strain resistant to tetracycline.
[11] abbreviates: read-out: MIC S.pyrogenes UC-152, BHI broth.
Where [12] appears, read: read-out: zone of inhibition, S. lutea.

Molecules are shown by their SMILES. Converted amounts (≈) assume the structure as drawn. Like-named read-outs stand apart in the source and are kept apart here.

Take `COC1CC2C=CC3C4OC2(C(C)=CC(C)C(C(C)O)OC1=O)C3C(O)C(C)C4OC(=O)c1cccnc1` (centres unmarked) [U-60,906, 9-O--Nicotinoyl-]: the zone of inhibition at 1000 µg/mL in the data set on S.lutea UC-130 (setting [2]) was 32 mm. For the same compound, the minimum inhibitory concentration (MIC) with S.aureus UC-76 (setting [3]) turned out to be 250 µg/mL (≈ 474 µM); in the data set on S.aureus UC-570 (setting [4]), 250 µg/mL (≈ 474 µM); with S.aureus UC-746 (setting [5]), 250 µg/mL (≈ 474 µM); in the data set on S.pyrogenes UC-152 (setting [6]) it was 2500 µg/mL (≈ 4740 µM).
For the compound `COC1CC2C=CC3C4OC2(C(C)=CC(C)C(C(C)O)OC1=O)C3C(O)C(C)C4OC(=O)c1ccncc1` (centres unmarked) [U-60,925, 9-O--Isonicotinoyl], the zone of inhibition at 1000 µg/mL in the data set on S.lutea UC-130 (setting [2]) is 38 mm. Moreover, the MIC was 250 µg/mL (≈ 474 µM) with S.aureus UC-76 (setting [3]), 250 µg/mL (≈ 474 µM) in the data set with S.aureus UC-570 (setting [4]), 250 µg/mL (≈ 474 µM) in the data set on S.aureus UC-746 (setting [5]) and over 250 µg/mL in the data set on S.pyrogenes UC-152 (setting [6]).
With `COC1CC2C=CC3C4OC2(C(C)=CC(C)C(C(C)OC(=O)c2ccc[nH]2)OC1=O)C3C(O)C(C)C4O` (centres unmarked) [U-60,907, 18-O--Pyrrole-2-carbonyl], the zone of inhibition at 1000 µg/mL was determined as 33 mm with S.lutea UC-130 (setting [2]) and 27 mm with S.aureus UC 80 (setting [7]). In addition, the MIC in the data set on S.aureus UC-76 (setting [8]) is 7.8 µg/mL (≈ 15.1 µM); with S.aureus UC-570 (setting [9]), 3.9 µg/mL (≈ 7.56 µM); in the data set on S.aureus UC-746 (setting [10]), 15.6 µg/mL (≈ 30.3 µM); in the data set with S.pyrogenes UC-152 (setting [11]), over 250 µg/mL.
As to `COC1CC2C=CC3C4OC2(C(C)=CC(C)C(C(C)O)OC1=O)C3C(O)C(C)C4OC(=O)c1cccn1C` (centres unmarked) [U-60,988, 9-O--N--Methylpyrrole-2-carbonyl-], the zone of inhibition at 1000 µg/mL in the data set on S.lutea UC-130 (setting [2]) was 24 mm. For the same compound, the minimal inhibitory concentration (MIC) was 250 µg/mL (≈ 472 µM) with S.aureus UC-76 (setting [8]), over 250 µg/mL in the data set on S.aureus UC-570 (setting [9]), 250 µg/mL (≈ 472 µM) in the data set on S.aureus UC-746 (setting [10]) and 125 µg/mL (≈ 236 µM) with S.pyrogenes UC-152 (setting [11]).
As to `COC1CC2C=CC3C4OC2(C(C)=CC(C)C(C(C)O)OC1=O)C3C(OC(=O)c1ccco1)C(C)C4O` (centres unmarked) [U-60,905, 11-O--Furoyl-], the zone of inhibition at 1000 µg/mL in the data set on S.lutea UC-130 (setting [2]) was 17 mm. The MIC with S.aureus UC-76 (setting [3]) was 500 µg/mL (≈ 968 µM); in the data set with S.aureus UC-570 (setting [4]), 500 µg/mL (≈ 968 µM); in the data set on S.aureus UC-746 (setting [5]), 500 µg/mL (≈ 968 µM); in the data set on S.pyrogenes UC-152 (setting [6]), over 500 µg/mL.
Regarding `COC1CC2C=CC3C4OC2(C(C)=CC(C)C(C(C)O)OC1=O)C3C(O)C(C)C4OC(=O)[C@@H]1CCCN1` (stereo partly drawn) [U-60,933, 9-O--L-Pyrolyl-], the zone of inhibition at 1000 µg/mL turned out to be 38 mm in the data set with S.lutea UC-130 (setting [2]) and 16 mm in the data set with S.aureus UC 80 (read-out: Agar Diffusion 1 mg./ml. S.aureus UC 80 (inhibition zone)). Besides, the minimal inhibitory concentration (MIC) with S.aureus UC-76 (setting [3]) is 31.2 µg/mL (≈ 60 µM); with S.aureus UC-570 (setting [4]) it was 62.5 µg/mL (≈ 120 µM); with S.aureus UC-746 (setting [5]), 62.5 µg/mL (≈ 120 µM); in the data set on S.pyrogenes UC-152 (setting [6]) it was over 250 µg/mL.
As to `COC1CC2C=CC3C4OC2(C(C)=CC(C)C(C(C)OC(=O)c2ccccc2)OC1=O)C3C(O)C(C)C4O` (centres unmarked) [18-O--benzoyl-, 18-O-benzoyl-nodusmicin], the “insoluble” value in data set [1] is recorded as “insoluble”.
As to `COC1CC2C=CC3C4OC2(C(C)=CC(C)C(C(C)O)OC1=O)C3C(O)C(C)C4OC(=O)c1ccc[nH]1` (centres unmarked) [U-59,760, 9-O-pyrrole-2-carbonyl ester of nodusmicin, reference compound], the zone of inhibition at 1000 µg/mL was found to be 44 mm in the data set on S.lutea UC-130 (setting [2]) and 37 mm in the data set with S.aureus UC 80 (setting [7]). In addition, in the data set on S.aureus UC 80 (1 mg./ml., 12.7 mm paper disc, 16 hours), the “Agar Diffusion 1 mg./ml. S.aureus UC 80 (inhibition zone)” value is 38. Also, the “MIC S.aureus UC-76” value against S.aureus UC-76 (BHI broth, sensitive strain) was found to be 0.125 µg/mL (≈ 0.242 µM). For the same compound, the MIC was 0.0625 µg/mL (≈ 0.121 µM) in the data set on S.aureus UC-76 (setting [8]) and over 125 µg/mL in the data set on S.pyrogenes UC-152 (setting [11]). Also, the “MIC S.pyrogenes UC-152” value against S.pyrogenes UC-152 (BHI broth) is 62.5 µg/mL (≈ 121 µM).
For the compound `COC1CC2C=CC3C4OC2(C(C)=CC(C)C(C(C)O)OC1=O)C3C(O)C(C)C4OC(=O)c1cc2ccccc2[nH]1` (centres unmarked) [U-61,273, 9-O--Indole-2-carbonyl-], in data set [1], the “insoluble” value is “insoluble”. Moreover, the zone of inhibition at 1000 µg/mL in the data set with S.lutea UC-130 (setting [2]) was found to be 22 mm.
Consider `COC1CC2C=CC3C4OC2(C(C)=CC(C)C(C(C)O)OC1=O)C3C(O)C(C)C4OC(=O)c1ccccc1` (centres unmarked) [9-O--benzoyl-, 9-O-benzoyl-nodusmicin], for which, in data set [1], the “insoluble” value was “insoluble”. The zone of inhibition at 1000 µg/mL with S.lutea UC-130 (setting [2]) and in the data set on S.lutea UC-130 (setting [12]) was 30 mm each time.
Consider `COC1CC2C=CC3C4OC2(C(C)=CC(C)C(C(C)O)OC1=O)C3C(O)C(C)C4OC(=O)c1ccsc1` (centres unmarked) [U-60,910, 9-O-Thiophene-3-carbonyl-nodusmicin], for which the zone of inhibition at 1000 µg/mL stood at 40 mm with S.lutea UC-130 (setting [2]); 40 mm in the data set with S.lutea UC-130 (setting [12]); 35 mm with S.aureus UC 80 (setting [7]); 35 mm in the data set with S.aureus UC 80 (read-out: zone of inhibition, S. aureus, 1 mg./ml., 0.5 inch disc, agar tray, strain not stated). Besides, the minimum inhibitory concentration (MIC) in the data set with S.aureus UC-76 (setting [3]) turned out to be 0.5 µg/mL (≈ 0.939 µM); with S.aureus UC-570 (setting [4]), 0.25 µg/mL (≈ 0.469 µM); with S.aureus UC-746 (setting [5]) it was 0.5 µg/mL (≈ 0.939 µM); in the data set with S.pyrogenes UC-152 (setting [11]), 125 µg/mL (≈ 235 µM).
